# “And” between values parts separate entries of the source, which are not always exact repeats. Identical values can stand only once.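 All cell lines were grown in 96-well plates and treated with compound for 48 hours. Abbreviation: GI50, concentration required for 50% inhibition of growth. At the TGI there is no net growth.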
# Tests used:
# Experiment in all cases: NCI anticancer screen, dose series, 48 h
# [1] = system: TK-10 renal
# [2] = system: MCF7 breast
# [3] = system: OVCAR-8 ovarian
# [4] = system: A549 NSCLC
# [5] = system: OVCAR-5 ovarian
# [6] = system: NCI-H522 lung
# [7] = system: HOP-92 NSCLC
# [8] = system: UO-31 renal
# [9] = system: KM12 colon
# [10] = system: CAKI-1 renal
Compound,TGI [1],TGI [2],TGI [3],TGI [4],TGI [5],TGI [6],TGI [7],TGI [8],GI50 [1],GI50 [2],GI50 [3],GI50 [4],GI50 [5],GI50 [9],TGI [9],GI50 [6],GI50 [8],GI50 [10],TGI [10],GI50 [7]
Cc1ccc(S(=O)(=O)NC(Cc2ccccc2)C(=O)CCl)cc1 (stereo not given),30.9 µM,24.5 µM,29.7 µM,31.5 µM,31.2 µM,21.4 µM,26.8 µM,27 µM,–,–,–,–,–,–,–,–,–,–,–,–
O=C(Nc1ccc(Cl)cc1)c1cc(NCc2cc(O)ccc2O)ccc1O,23.6 µM,25.5 µM,20.1 µM,44 µM,19 µM,1.88 µM,–,3.21 µM,11.1 µM,3.87 µM,4.35 µM,18.4 µM,4.77 µM,3.33 µM,14.6 µM,0.488 µM,1.45 µM,4.09 µM,18.2 µM,–
CCCCSC1CCSc2c1ccc1ccccc21 (stereo not given),> 100 µM,–,> 100 µM,> 100 µM,> 100 µM,–,> 100 µM,> 100 µM,–,–,–,–,–,–,> 100 µM,–,–,–,> 100 µM,–
NC(CCl)=NCC12CC3CC(CC(C3)C1)C2,9.14 µM,6.9 µM,19.4 µM,15.7 µM,11.1 µM,2.19 µM,–,15.8 µM,1.31 µM,0.557 µM,0.877 µM,0.792 µM,3.73 µM,0.96 µM,3.47 µM,0.391 µM,0.74 µM,0.426 µM,2.48 µM,–
CCCC[C@H](CCc1ccccc1)N(C(=O)OC)N1CCC[C@H]1COC,79.3 µM,–,71.5 µM,67.1 µM,32.4 µM,28.1 µM,40.5 µM,35.4 µM,–,–,–,–,–,–,35.9 µM,–,–,–,> 100 µM,–
O=C(N/N=C/c1ccc([N+](=O)[O-])cc1)c1ccccc1Nc1ccnc(C(F)(F)F)c1,20.2 µM,45.6 µM,49.8 µM,66 µM,> 100 µM,38.3 µM,–,59.6 µM,0.0799 µM,19.9 µM,11.6 µM,15.4 µM,24.6 µM,2.75 µM,55.4 µM,12.5 µM,16.6 µM,13.5 µM,36.4 µM,–
O=C(N/C(=C\c1cccc([N+](=O)[O-])c1)c1nc2c3c(ccc2[nH]1)C(=O)c1ccccc1C3=O)c1ccccc1,82.2 µM,–,> 100 µM,> 100 µM,90.4 µM,> 100 µM,> 100 µM,> 100 µM,–,–,–,–,–,–,> 100 µM,–,–,–,> 100 µM,–
O=c1cc(-c2ccccc2)oc2c(O)c(O)ccc12,71.1 µM,> 100 µM,> 100 µM,91.5 µM,> 100 µM,> 100 µM,–,29 µM,7.5 µM,20 µM,5.65 µM,7.22 µM,22 µM,10.3 µM,> 100 µM,8.27 µM,3.02 µM,7.18 µM,61.2 µM,–
O=C(O)C(Cc1ccccc1)N=Cc1nc(-c2ccccc2)oc1O (stereo not given),> 100 µM,–,> 100 µM,> 100 µM,> 100 µM,> 100 µM,–,> 100 µM,–,–,–,–,–,–,> 100 µM,–,–,–,> 100 µM,–
CCCCCCCCCCCCCCCCCC1=NC(C)(C)CN1C(C)(C)CO,3.34 µM,–,–,3.31 µM,3.48 µM,3.25 µM,3.37 µM,3.43 µM,1.83 µM,–,–,1.68 µM,1.56 µM,1.34 µM,2.64 µM,1.63 µM,1.42 µM,1.6 µM,3.9 µM,0.85 µM
COC(=O)[C@@H](C)C[C@H](Cc1ccccc1)NC(=O)c1csc([C@@H](C[C@H](C(C)C)N(C)C(=O)[C@@H](NC(=O)[C@H]2CCCCN2C)c2ccc(F)cc2)OC(C)=O)n1,25 µM and > 100 µM,25 µM and > 100 µM,25 µM and > 100 µM,25 µM and > 100 µM,25 µM and > 100 µM,–,–,–,–,0.00229 µM and 0.0025 µM,–,–,–,–,25 µM and > 100 µM,0.00259 µM and 0.0234 µM,–,–,–,–
CSc1nc2c(nc(N)n2C2OC(CO)C(O)C(O)C2O)c(=O)[nH]1 (stereo not given),> 100 µM,–,> 100 µM,> 100 µM,–,> 100 µM,> 100 µM,> 100 µM,–,–,–,–,–,–,> 100 µM,–,–,–,> 100 µM,–
Clc1ccc(-c2nnc(-c3nn(-c4ccccc4)c4nc5ccccc5nc34)o2)cc1,> 100 µM,–,> 100 µM,> 100 µM,> 100 µM,> 100 µM,–,> 100 µM,–,–,–,–,–,–,> 100 µM,–,–,–,> 100 µM,–
NCCCNCc1c2ccccc2c(CNCCCN)c2ccccc12,> 100 µM,–,33.9 µM,82.6 µM,62.1 µM,21 µM,49.1 µM,> 100 µM,–,–,–,–,–,–,43.9 µM,–,–,–,> 100 µM,–
Oc1ccc(O)c(-n2cccn2)c1,> 100 µM,–,> 100 µM,> 100 µM,> 100 µM,34.7 µM,93.2 µM,> 100 µM,–,–,–,–,–,–,> 100 µM,–,–,–,33.3 µM,–
CC(C)(C)OC(=O)NC(Cc1ccccc1)C(=S)N1CCCC1 (stereo not given),> 100 µM,–,> 100 µM,> 100 µM,> 100 µM,96.9 µM,> 100 µM,> 100 µM,–,–,–,–,–,–,> 100 µM,–,–,–,> 100 µM,–
C=CCN=C1NC(=O)C(CC(=O)Nc2cccc(Cl)c2)S1 (stereo not given),> 100 µM,–,> 100 µM,> 100 µM,> 100 µM,> 100 µM,–,> 100 µM,–,–,–,–,–,–,> 100 µM,–,–,–,> 100 µM,–
C/C(=N\NC(=O)c1ccccc1O)c1c(O)cc(C)oc1=O,> 100 µM,–,> 100 µM,> 100 µM,> 100 µM,> 100 µM,68.3 µM,> 100 µM,–,–,–,–,–,–,> 100 µM,–,–,–,–,–
O=C(NC1CCCCC1)NC12CC3CC(CC(F)(C3)C1)C2,> 100 µM,–,> 100 µM,> 100 µM,> 100 µM,> 100 µM,> 100 µM,> 100 µM,–,–,–,–,–,–,> 100 µM,–,–,–,–,–
